The record followed here is patent US20110306563A1, “MACROLACTONE DERIVATIVES, METHOD FOR THE PRODUCTION THEREOF AND USE THEREOF FOR THE TREATMENT OF CANCER” (SANOFI, priority 2008, published 2011).

Format in all cases: cell-based
For assay [1], the system named is HCT116. The experiment in a line: 14C-Thymidine incorporation assay, HCT116. Particulars: Homo sapiens, HCT-116. How it is done:
(§1) Experimental conditions for 14C-Thymidine incorporation assays: • 1) Cells were seeded in 96 well Cytostar microplates in 180 μl of culture medium (DMEM supplemented with 10% Fetal Calf Serum). • Seeding density are 2500 cells/well for HCT116, 5000 cells/well for HT29 and PC3 and 10000 cells/well for MDA-MB231, MDA-A1, H460 and B16F10. • 2) The microplates were incubated 4 h at 37° C. with 5% CO2 • 3) 10 μl of test compound were added • 4) The microplates were incubated 72 h at 37° C. with 5% CO2 • 5) 10 μl of 14C-Thymidine at 10 μCi/ml was added • 6) The microplates were incubated 24 h at 37° C. with 5% CO2 • 7) The radioactivity incorporated in the cells was measured with a Microbeta Trilux radioactivity scintillation counter (Wallac).
(In general: Incorporation of labelled thymidine or its analogues reports DNA synthesis.)

The subject of assay [2] is HT29. As to the kind of experiment: 14C-Thymidine incorporation assay, HT29. The note with it: Homo sapiens, HT-29; HT29, Colon; 72 h + 24 h 14C-Thymidine. The method, then: as §1
For assay [3], the system named is HL60. As to the kind of experiment: ATP viability assay (CellTiterGlo), HL60. The note with it: Homo sapiens, HL-60; HL60, Leukemia; 96 h incubation. How it is done: (§2) Experimental conditions for ATP viability assays: • 1) Cells were seeded in 96 well microplates in 135 μl of culture medium. • Culture medium used were RPMI supplemented with 10% Fetal Calf Serum for HL60 and CEM cell lines and DMEM with 10% FCS for Normal Human Dermal Fibroblasts (NHDF). Seeding density was 25000 cells/well for HL60 and CEM and 7500 cells/well for NHDF. • 2) The microplates were incubated 4 h at 37° C. with 5% CO2. • 3) 15 μl of test compound were added • 4) The microplates were incubated 96 h. • 5) 100 μl of a mix of lysing reagent and luciferase/luciferin was added (CellTiterGlo, Promega). The luminescence emitted was measured with a Microbeta Trilux counter (Wallac).
On the technique in general: ATP-based viability assays read luminescence as a measure of living cells.

Assay [4] relates to CEM. The experiment in a line: ATP viability assay (CellTiterGlo), CEM. The note with it: Homo sapiens, CCRF-CEM, Leukemia, 96 h incubation. The method, then:
as §2

The test system of assay [5] is B16F10. The experiment in a line: 14C-Thymidine incorporation assay, B16F10. Particulars: Mus musculus, B16-F10; B16F10, Melanoma; 72 h + 24 h 14C-Thymidine. The method, then: as §1
In assay [6] the test system is PC3. As to the kind of experiment: 14C-Thymidine incorporation assay, PC3. Particulars: Homo sapiens, PC-3; PC3, Prostate; 72 h + 24 h 14C-Thymidine. How it is done: as §1
Assay [7] deals with Normal Human Dermal Fibroblasts (NHDF). The experiment in a line: ATP viability assay (CellTiterGlo), NHDF. Particulars: 96 h incubation. The method, then:
as §2

Assay [8] concerns H460. The experiment in a line: 14C-Thymidine incorporation assay, H460. Particulars: Homo sapiens, NCI-H460; H460, Lung; 72 h + 24 h 14C-Thymidine. How it is done:
as §1

Assay [9] concerns MDA-A1. As to the kind of experiment: 14C-Thymidine incorporation assay, MDA-A1. Particulars: MDA-A1, Breast; 72 h + 24 h 14C-Thymidine. How it is done:
as §1

The subject of assay [10] is MDA-MB231. The experiment in a line: 14C-Thymidine incorporation assay, MDA-MB231. Particulars: Homo sapiens, MDA-MB-231; MDA-MB231, Breast; 72 h + 24 h 14C-Thymidine. How it is done: as §1
Where [11] appears, read: HCT116 (colon), average, read-out: Average IC50 (nM) against HCT116 (colon).
Setting [12] is: HCT116, Colon, 72 h + 24 h 14C-Thymidine, read-out: IC50.

Read-outs that look alike come from different tables or passages of the source.

In the case of `CCC(C)C1C(=O)NC(Cc2ccc(O)c(Cl)c2)C(=O)NC(C(C)(C)O)C(=O)OC(c2ccccc2)C(C)/C=C/C=C(\C)C(OC)CC2OC2(C)C(=O)N1C` (stereo not drawn) [III], in assay [1] (setting [11]), the IC50 (usually the concentration that inhibits the measured activity by half) turned out to be 0.326 nM.
For `CCC(C)C1C(=O)NC(Cc2cc(Cl)c(O)c(Cl)c2)C(=O)NC(C(C)(C)O)C(=O)OC(c2ccccc2)C(C)/C=C/C=C(\C)C(OC)CC2OC2(C)C(=O)N1C` (stereo not drawn) [II], the IC50 in assay [2] fell in the range of 3 to 12.5 nM; in assay [3], 9.5 to 15 nM; in assay [4], 7.1 to 10.5 nM; in [5], 4.5 to 25.2 nM; in assay [6] it was 4.4 to 16 nM; in assay [7], 6.2 to 9.5 nM. Moreover, the IC50 fell in the range of 9.1 to 10.4 nM in assay [8], 0.6 to 5.6 nM in [1] (setting [12]), 1.4 to 20.8 nM in [9] and 4.8 to 16.8 nM in [10].
On to `CCC(C)C1C(=O)NC(Cc2cc(Cl)c(OC)c(Cl)c2)C(=O)NC(C(C)(C)O)C(=O)OC(c2ccccc2)C(C)/C=C/C=C(\C)C(OC)CC2OC2(C)C(=O)N1C` (stereo not drawn) [IX], for which the IC50 was in the range of 2.1 to 2.2 nM in [1] (setting [12]), 9.6 to 14.1 nM in assay [9] and 5.1 to 8.4 nM in assay [10].
Turning to `CCC(C)C1C(=O)NC(Cc2ccc(O)c(Br)c2)C(=O)NC(C(C)(C)O)C(=O)OC(c2ccccc2)C(C)/C=C/C=C(\C)C(OC)C/C=C(/C)C(=O)N1C` (stereo not drawn) [VIII], the IC50 in [1] (setting [11]) turned out to be 2.1 nM.
Still for that read-out and setting: under `CCC(C)C1C(=O)NC(Cc2ccc(O)c(Br)c2)C(=O)NC(C(C)(C)O)C(=O)OC(c2ccccc2)C(C)/C=C/C=C(\C)C(OC)CC2OC2(C)C(=O)N1C` (stereo not drawn) [VII] stands 0.268 nM; under `CCC(C)C1C(=O)NC(Cc2cc(Cl)c(O)c(Br)c2)C(=O)NC(C(C)(C)O)C(=O)OC(c2ccccc2)C(C)/C=C/C=C(\C)C(OC)CC2OC2(C)C(=O)N1C` (stereo not drawn) [VI], 0.393 nM.
In the case of `COC1CC2OC2(C)C(=O)N(C)C(C(C)C)C(=O)NC(Cc2cc(Cl)c(O)c(Cl)c2)C(=O)NC(C(C)(C)O)C(=O)OC(c2ccccc2)C(C)/C=C/C=C/1C` (stereo not drawn) [V], in [1] (setting [11]), the IC50 was determined as 0.673 nM.
